SMILES | melting point
Cc1cc2cc(CN3CCCC3)cnc2cc1NC(=O)c1ccc(-c2ccccc2Cl)cc1.Cl | 283 °C
Cc1c(NC(=O)c2ccc(-c3cc4ccccc4o3)cc2)ccc2cc(CN3CCCC3)cnc12 (hydrate or solvate) [Example 106, 4-(1-benzofuran-2-yl)-N-[8-methyl-3-(1-pyrrolidinylmethyl)-7-quinolinyl]benzamide] | 217 to 218 °C
CSc1ccc(-c2ccc(C(=O)Nc3ccc4cc(CN5CCCC5)cnc4c3C)cc2)cc1 (hydrate or solvate) [Example 110, N-[8-methyl-3-(1-pyrrolidinylmethyl)-7-quinolinyl]-4′-(methylsulfanyl)[1,1′-biphenyl]-4-carboxamide] | 206 to 208 °C
CC(=O)c1ccc(-c2ccc(C(=O)Nc3ccc4cc(CN5CCCC5)cnc4c3C)cc2)s1 (hydrate or solvate) [Example 119, 4-(5-acetyl-2-thienyl)-N-[8-methyl-3-(1-pyrrolidinylmethyl)-7-quinolinyl]benzamide] | 194 to 195 °C
Cc1c(NC(=O)c2ccc(OCc3ccc(F)cc3)cc2)ccc2cc(CN3CCCC3)cnc12 (hydrate or solvate) [Example 123, 4-[(4-fluorobenzyl)oxy]-N-[8-methyl-3-(1-pyrrolidinylmethyl)-7-quinolinyl]benzamide] | 177 to 178 °C
Cc1c(NC(=O)c2ccc(-c3ccc(Cl)cc3Cl)cc2F)ccc2cc(CN3CCCC3)cnc12 (hydrate or solvate) [Example 137, 2′,4′-dichloro-3-fluoro-N-[8-methyl-3-(1-pyrrolidinylmethyl)-7-quinolinyl][1,1′-biphenyl]-4-carboxamide] | 162 to 163 °C
Cc1c(NC(=O)c2ccc(-c3ccc(C(F)(F)F)cc3)cc2F)ccc2cc(CN3CCCC3)cnc12 (hydrate or solvate) [Example 138, 3-fluoro-N-[8-methyl-3-(1-pyrrolidinylmethyl)-7-quinolinyl]-4′-(trifluoromethyl)[1,1′-biphenyl]-4-carboxamide] | 202 to 203 °C
Cc1c(NC(=O)c2ccc(-c3ccc4c(c3)OCO4)cc2F)ccc2cc(CN3CCCC3)cnc12 (hydrate or solvate) [Example 141, 4-(1,3-benzodioxol-5-yl)-2-fluoro-N-[8-methyl-3-(1-pyrrolidinylmethyl)-7-quinolinyl]benzamide] | 181 to 182 °C
Cc1c(NC(=O)c2ccc(-c3ccc(Cl)s3)cc2F)ccc2cc(CN3CCCCC3)cnc12 (hydrate or solvate) [Example 172, 4-(5-chloro-2-thienyl)-2-fluoro-N-[8-methyl-3-(1-piperidinylmethyl)-7-quinolinyl]benzamide] | 205 to 206 °C
Cc1c(NC(=O)c2ccc(-c3ccccc3)c(F)c2)ccc2cc(CN3CCCCC3)cnc12 (hydrate or solvate) [Example 175, 2-fluoro-N-[8-methyl-3-(1-piperidinylmethyl)-7-quinolinyl][1,1′-biphenyl]-4-carboxamide] | 138 to 139 °C
Cc1c(NC(=O)c2ccc(-c3ccccc3)cc2F)ccc2cc(CN3CCCCCC3)cnc12 (hydrate or solvate) [Example 183, N-[3-(1-azepanylmethyl)-8-methyl-7-quinolinyl]-3-fluoro[1,1′-biphenyl]-4-carboxamide] | 151 to 153 °C
Cc1c(NC(=O)c2ccc(-c3ccc(Cl)s3)cc2F)ccc2cc(CN3CCCCCC3)cnc12 (hydrate or solvate) [Example 186, N-[3-(1-azepanylmethyl)-8-methyl-7-quinolinyl]-4-(5-chloro-2-thienyl)-2-fluorobenzamide] | 166 to 167 °C
Cc1c(NC(=O)c2ccc(-c3ccc(F)cc3)c(F)c2)ccc2cc(CN3CCCCCC3)cnc12 (hydrate or solvate) [Example 189, N-[3-(1-azepanylmethyl)-8-methyl-7-quinolinyl]-2,4′-difluoro[1,1′-biphenyl]-4-carboxamide] | 162 to 163 °C
COc1ccc(-c2ccc(C(=O)Nc3ccc4cc(CN5CCCCCC5)cnc4c3C)cc2F)cc1 (hydrate or solvate) [Example 190, N-[3-(1-azepanylmethyl)-8-methyl-7-quinolinyl]-2-fluoro-4′-methoxy[1,1′-biphenyl]-4-carboxamide] | 160 to 161 °C
O=C(Nc1ccc2cc(CN3CCCC3)cnc2c1)c1ccc(-c2ccc(F)cc2)cc1 [Example 4, 4′-fluoro-N-[3-(1-pyrrolidinylmethyl)-7-quinolinyl][1,1′-biphenyl]-4-carboxamide] | 210 to 212 °C
Cc1ccc(-c2ccc(C(=O)Nc3ccc4cc(CN5CCCC5)cnc4c3)cc2)cc1 [Example 5, 4′-methyl-N-[3-(1-pyrrolidinylmethyl)-7-quinolinyl][1,1′-biphenyl]-4-carboxamide] | 206 to 208 °C
O=C(Nc1ccc2cc(CN3CCCC3)cnc2c1)c1ccc(-c2ccccc2)nc1 [Example 7, 6-phenyl-N-[3-(1-pyrrolidinylmethyl)-7-quinolinyl]nicotinamide] | 208 to 210 °C
O=C(Nc1ccc2cc(CN3CCCC3)cnc2c1)c1ccc(-c2ccc(Cl)cc2)nc1 [Example 11, 6-(4-chlorophenyl)-N-[3-(1-pyrrolidinylmethyl)-7-quinolinyl]nicotinamide] | 223 to 225 °C
O=C(Nc1ccc2cc(CN3CCCC3)cnc2c1)N1CCC(c2ccc(F)cc2)CC1 [Example 14, 4-(4-fluorophenyl)-N-[3-(1-pyrrolidinylmethyl)-7-quinolinyl]-1-piperidine carboxamide] | 239 to 241 °C

Next, values leading:

melting point | SMILES
171 to 172 °C | Cc1c(NC(=O)c2ccc(-c3ccc4c(c3)OCO4)cc2)ccc2cc(CN3CCCC3)cnc12 (hydrate or solvate) [Example 105, 4-(1,3-benzodioxol-5-yl)-N-[8-methyl-3-(1-pyrrolidinylmethyl)-7-quinolinyl]benzamide]
128 to 129 °C | Cc1c(NC(=O)c2ccc(-c3ccccc3Cl)cc2)ccc2cc(CN3CCCC3)cnc12 (hydrate or solvate) [Example 108, 2′-chloro-N-[8-methyl-3-(1-pyrrolidinylmethyl)-7-quinolinyl][1,1′-biphenyl]-4-carboxamide]
187 to 188 °C | Cc1c(NC(=O)c2ccc(-c3ccc4c(c3)OCCO4)cc2)ccc2cc(CN3CCCC3)cnc12 (hydrate or solvate) [Example 115, 4-(2,3-dihydro-1,4-benzodioxin-6-yl)-N-[8-methyl-3-(1-pyrrolidinylmethyl)-7-quinolinyl]benzamide]
217 to 218 °C | Cc1c(NC(=O)c2ccc(-c3cc4ccccc4s3)cc2)ccc2cc(CN3CCCC3)cnc12 (hydrate or solvate) [Example 120, 4-(1-benzothien-2-yl)-N-[8-methyl-3-(1-pyrrolidinylmethyl)-7-quinolinyl]benzamide]
160 to 162 °C | Cc1c(NC(=O)c2ccc(-c3ccc(Cl)s3)cc2F)ccc2cc(CN3CCCC3)cnc12 (hydrate or solvate) [Example 143, 4-(5-chloro-2-thienyl)-2-fluoro-N-[8-methyl-3-(1-pyrrolidinylmethyl)-7-quinolinyl]benzamide]
187 to 188 °C | Cc1c(NC(=O)c2ccc(-c3ccccc3)cc2F)ccc2cc(CN3CCCCC3)cnc12 (hydrate or solvate) [Example 169, 3-fluoro-N-[8-methyl-3-(1-piperidinylmethyl)-7-quinolinyl][1,1′-biphenyl]-4-carboxamide]
161 to 162 °C | Cc1c(NC(=O)c2ccc(-c3ccc(F)cc3)c(F)c2)ccc2cc(CN3CCCCC3)cnc12 (hydrate or solvate) [Example 176, 2,4′-difluoro-N-[8-methyl-3-(1-piperidinylmethyl)-7-quinolinyl][1,1′-biphenyl]-4-carboxamide]
186 to 187 °C | Cc1c(NC(=O)c2ccc(-c3ccc(Cl)s3)cc2)ccc2cc(CN3CCCCCC3)cnc12 (hydrate or solvate) [Example 181, N-[3-(1-azepanylmethyl)-8-methyl-7-quinolinyl]-4-(5-chloro-2-thienyl)benzamide]
129 to 130 °C | Cc1c(NC(=O)c2ccc(-c3ccccc3)c(F)c2)ccc2cc(CN3CCCCCC3)cnc12 (hydrate or solvate) [Example 188, N-[3-(1-azepanylmethyl)-8-methyl-7-quinolinyl]-2-fluoro[1,1′-biphenyl]-4-carboxamide]
236 to 238 °C | CN(C)Cc1cnc2cc(NC(=O)c3ccc(-c4ccc(Cl)cc4)cc3)ccc2c1 [Example 1, 4′-chloro-N-[3-[(dimethylamino)methyl]-7-quinolinyl][1,1′-biphenyl]-4-carboxamide]
192 to 194 °C | O=C(Nc1ccc2cc(CN3CCCC3)cnc2c1)c1ccc(-c2ccccc2)cc1 [Example 2, N-[3-(1-pyrrolidinylmethyl)-7-quinolinyl][1,1′-biphenyl]-4-carboxamide]
202 to 204 °C | COc1ccc(-c2ccc(C(=O)Nc3ccc4cc(CN5CCCC5)cnc4c3)cc2)cc1 [Example 3, 4′-methoxy-N-[3-(1-pyrrolidinylmethyl)-7-quinolinyl][1,1′-biphenyl]-4-carboxamide]
217 to 220 °C | O=C(Nc1ccc2cc(CN3CCCC3)cnc2c1)c1ccc(-c2ccc(Cl)cc2)cc1 [Example 6, 4′-chloro-N-[3-(1-pyrrolidinylmethyl)-7-quinolinyl][1,1′-biphenyl]-4-carboxamide]
218 to 220 °C | O=C(Nc1ccc2cc(CN3CCCC3)cnc2c1)c1ccc(-c2ccc(F)cc2)nc1 [Example 9, 6-(4-fluorophenyl)-N-[3-(1-pyrrolidinylmethyl)-7-quinolinyl]nicotinamide]
226 to 228 °C | Cc1ccc(-c2ccc(C(=O)Nc3ccc4cc(CN5CCCC5)cnc4c3)cn2)cc1 [Example 10, 6-(4-methylphenyl)-N-[3-(1-pyrrolidinylmethyl)-7-quinolinyl]nicotinamide]
222 to 224 °C | O=C(Nc1ccc2cc(CN3CCCC3)cnc2c1)N1CCC(c2ccccc2)CC1 [Example 12, 4-phenyl-N-[3-(1-pyrrolidinylmethyl)-7-quinolinyl]-1-piperidine carboxamide]
241 to 243 °C | COc1ccc(C2CCN(C(=O)Nc3ccc4cc(CN5CCCC5)cnc4c3)CC2)cc1 [Example 13, 4-(4-methoxyphenyl)-N-[3-(1-pyrrolidinylmethyl)-7-quinolinyl]-1-piperidine carboxamide]

Source: US7183415B2, “Quinoline compound” (Takeda Pharmaceutical Company Limited, priority 2001, dated 2007)
